Source: patent US9796673B2 (TEVA PHARMACEUTICALS INTERNATIONAL GMBH, priority 2014, dated 2017)
Structures can show the parent of a compound that is named as a salt.

Experiments:
[1] = WO 01/46145 salt; cited from earlier work
[2] = Dynamic vapor sorption (DVS) hygroscopicity; format: physicochemical; details: for Hygroscopicity 40% RH: Table 3, 40% RH; for Hygroscopicity 75% RH: Table 3, 75% RH; for Hygroscopicity 90% RH: Table 3, 90% RH
Procedure: DVS—Measurement of Dynamic Vapor Sorption: DVS experiments have been carried out using the DVS-HT instrument (Surface Measurement Systems, London, UK). This instrument measures the uptake and loss of vapor gravimetrically using a recording ultra-microbalance with a mass resolution of ±0.1 μg. The vapor partial pressure (±1.0%) around the sample is controlled by mixing saturated and dry carrier gas streams using electronic mass flow controllers. The desired temperature is maintained at ±0.1° C. […] The sample was loaded and unloaded at 40% RH and 25° C. (typical room conditions). A moisture sorption isotherm was performed as outlined below (2 scans giving 1 complete cycle). The software uses a least squares minimization procedure together with a model of the mass relaxation, to predict an asymptotic value. The measured mass equilibration value must be within 2% of that predicted by the software before proceeding to the next % RH value. The minimum equilibration time was set to 1 hour and the maximum to 4 hours.

[3] = for pH: pH column of water solubility table (Table 2)
[4] = acid; cited from earlier work
[5] = 4 week, 40° C. and 75% RH

| Molecule | Hygroscopicity 40% RH [2] | Hygroscopicity 75% RH [2] | Hygroscopicity 90% RH [2] | pKa1 [4] | other results |
| --- | --- | --- | --- | --- | --- |
| O=S(=O)(O)c1ccc2ccccc2c1 [Naphthalene 2-sulfonic acid] |  |  |  | 0.17 |  |
| O=C(O)CO [Glycolic acid] |  |  |  | 3.28 |  |
| Br.CCCN1CCC(c2cccc(S(C)(=O)=O)c2)CC1 [HBr, reference compound] | 0.04% | 0.08% | 0.12% |  |  |
| O=S(=O)(O)c1ccccc1 [Benzene sulfonic acid] |  |  |  | 0.70 |  |

More lines, main results first:

| Hygroscopicity 40% RH [2] | Hygroscopicity 75% RH [2] | Hygroscopicity 90% RH [2] | Molecule | pKa1 [4] | other results |
| --- | --- | --- | --- | --- | --- |
| 0.1% | 0.45% | 7.3% | CCCN1CCC(c2cccc(S(C)(=O)=O)c2)CC1 [Hydrochloride, pridopidine hydrochloride, reference compound] |  | relative humidities at which non-hygroscopic [1]: below 86%; relative humidity in excess of which deliquescent [1]: > 86%; pH [3]: 6.0 |
| 0.02% | 0.1% | 0.2% | pridopidine tosylate |  | XRPD pattern before and after the DVS test [2]: no change in XRPD pattern; DVS weight gain ([2]; 40% RH): 0.02%; DVS weight gain ([2]; 70% RH): 0.1%; DVS weight gain ([2]; 90% RH): 0.2% |
| 0.1% | 0.2% | 17.2% | pridopidine L-malate |  | Water solubility, Conc. ([3]; kinetic, in water, shaken 20 minutes): 76 mg/mL; pH [3]: 3.9; chemical and physical stability [5]: acceptable |
| 3% | 40% | 70% | CCCN1CCC(c2cccc(S(C)(=O)=O)c2)CC1.CCCN1CCC(c2cccc(S(C)(=O)=O)c2)CC1.O=C(O)CCC(=O)O [Succinate (hemi), pridopidine succinate (hemi)] |  | Deliquescence during the DVS test [2]: deliquesced; DVS weight gain ([2]; 40% RH): 3%; DVS weight gain ([2]; 70% RH): 4%; DVS weight gain ([2]; 90% RH): 37% |
